Experimental data: patent US6818203B2, “Use of perfluoroalkyl-containing metal complexes as contrast media in MR-imaging for visualization of plaque, tumors and necroses” (Schering Aktiengesellschaft, priority 2000, dated 2004)

Tests used:
myocardial infarction = assay: infarction visualization (MRT) after intravenous administration in rats with acutely induced myocardial infarction; assay type: in vivo
Source text: The successful induction of an acute myocardial infarction was confirmed by means of NBT-staining.

[1] = hydrodynamic micelle diameter (2 Rh) by photon correlation spectroscopy (PCS); assay type: physicochemical
Source text: The amphiphilic compounds according to the invention are combined in solution and are present as aggregates. The size (2 Rh) of such aggregates (e.g., micelles, rods, wafers, etc.) can be determined with the aid of […] (PCS).
As a second criterion, the hydrodynamic micelle diameter 2 Rh, which must be >1 nm, is therefore used. Those perfluoroalkyl-containing metal complexes according to the invention whose 2 RH is ≧3, quite especially preferably >4 nm, are especially suitable.
Both the determination of the CMC and the photon correlation spectroscopy are described in H.-D. Dörfler, “Grenzflächen- und Kolloidchemie [Interface and Colloid Chemistry],” Weinheim, New York, Basel, Cambridge, Tokyo, VSH 1994.

iliac lymph nodes = assay: lymph node visualization (MRT) after intravenous administration in VX2-tumor-bearing rabbits; assay type: in vivo; settings: 200 μmol of Gd/kg i.v.; for signal in zones within the lymph node diagnosed as metastases (confirmed histologically): early images
Description: The pictures of FIG. 6 show MR images of an iliac lymph node and of a primary tumor (VX2-tumor implanted i.m.) precontrast, 60 minutes and 20 hours after intravenous administration of 100 μmol of Gd/kg of body weight of metal complex I in rabbits. […] The enhancement in the healthy lymph node tissue was 382% at the time of 15 minutes p.i. and 419% at the time of 60 minutes p.i. […] The ratio of signal intensities of healthy lymph node tissue to metastasis was 3.0 at the time of 15 minutes p.i. and 3.4 at the time of 60 minutes p.i. […] The enhancement in the healthy lymph node tissue was 246% at the time of 15 minutes p.i. and 282% at the time of 60 minutes p.i. […] The ratio of signal intensities of healthy lymph node tissue to metastasis was 2.5 at the time of 15 minutes p.i. and 1.7 at the time of 60 minutes p.i. […] The enhancement in the healthy lymph node tissue was 297% at the time of 10 minutes p.i. and 269% at the time of 60 minutes p.i. […] The ratio of signal intensities of healthy lymph node tissue to metastasis was 5.1 at the time of 10 minutes p.i. and 1.9 at the time of 60 minutes p.i. […] The enhancement in the healthy lymph node tissue was 195% at the time of 15 minutes p.i. and 233% at the time of 60 minutes p.i. […] The ratio of signal intensities of healthy lymph node tissue to metastasis was 1.9 at the time of 15 minutes p.i. and 1.8 at the time of 60 minutes p.i.

[2] = system: primary tumor (VX2-tumor implanted i.m.); assay: tumor visualization (MRT) after intravenous administration in VX2-tumor-bearing rabbits; assay type: in vivo; settings: 200 μmol of Gd/kg i.v.; for enhancement of the primary tumor (especially the periphery): 15 minutes p.i.
Description: The pictures of FIG. 6 show MR images of an iliac lymph node and of a primary tumor (VX2-tumor implanted i.m.) precontrast, 60 minutes and 20 hours after intravenous administration of 100 μmol of Gd/kg of body weight of metal complex I in rabbits. […]

[3] = proton relaxivity in plasma (R^1), Minispec P 20; assay type: physicochemical; settings: 40° C., 0.47 tesla, bovine plasma
Description: As a third criterion, the proton-relaxivity in plasma (R^1) at 40° C. and a field strength of 0.47 tesla is used. The relaxivity, which is indicated in [l/mmol·s], is the quantitative measurement for the shortening of relaxation time T^1 of the protons. For the purpose according to the invention, the relaxivity must be as high as possible and >10 l/mmol·s, preferably >13 l/mmol·s, especially preferably >15 l/mmol·s.
Relaxivity R^1 [l/mmol·s] of the MR-contrast media according to the invention was determined with the Minispec P 20 device of the Bruker Company. The measurements were taken at 40° C. and a field strength of 0.47 tesla. Eight measuring points were recorded by each T1-sequence: 180°-TI-90°, inversion recovery. As a medium, bovine plasma of the Kraeber Company was used. The contrast medium concentrations [mmol/l] in the batches were between 0.30 and 1.16.

[4] = organ distribution (including lymph node concentration) after intravenous administration in rats; assay type: in vivo; settings: 24 hours after administration, 200 μmol Gd/kg i.v.
Description: (§1) After intravenous administration of 100 μmol of total gadolinium/kg of body weight of a polar Gd-chelate with perfluorinated side chains (metal complex X) in rats, the metal content in various organs as well as in the lymph nodes (pooled as mesenteric and peripheral lymph nodes) was determined 24 hours after administration (MW, n=2).
as §1, with “200” for “100”, “V)” for “X)”
as §1, with “200” for “100”, “III)” for “X)”

Compound: O=C([O-])CN1CCN(CC(=O)[O-])CCN(CC(O)CNC(=O)CCCC(=O)N2CCN(C(F)(F)C(F)(F)C(F)(F)C(F)(F)C(F)(F)C(F)(F)C(F)(F)C(F)(F)F)CC2)CCN(CC(=O)[O-])CC1.[Gd+3] (stereo not shown) [metal complex III]
- signal in the infarction area (T1-weighted spin-echo images) (myocardial infarction; 22 hours after i.v. 100 μmol of Gd/kg): strong signal rise
- 2 Rh (hydrodynamic micelle diameter) [1]: 3.2 nm
- signal in healthy lymph node tissue (T1-weighted gradient-echo images) (iliac lymph nodes): strong signal rise
- enhancement in the healthy lymph node tissue (iliac lymph nodes; 15 minutes p.i.): 195%
- ratio of signal intensities of healthy lymph node tissue to metastasis (iliac lymph nodes; 15 minutes p.i.): 1.9
- enhancement in the healthy lymph node tissue (iliac lymph nodes; 60 minutes p.i.): 233%
- ratio of signal intensities of healthy lymph node tissue to metastasis (iliac lymph nodes; 60 minutes p.i.): 1.8
- signal in zones within the lymph node diagnosed as metastases (confirmed histologically) (iliac lymph nodes): without signal rise
- enhancement of the primary tumor (especially the periphery) [2]: 232%
- R^1 Plasma (relaxivity) [3]: 24.9 mmol⁻¹ s⁻¹
- metal content ([4]; Blood): 83 μmol Gd/L
- metal content, % Dose ([4]; Blood): 1.15 % Dose
- metal content ([4]; Brain): 10 μmol Gd/L
- metal content, % Dose ([4]; Brain): 0.05 % Dose
- metal content ([4]; Carcass): 242 μmol Gd/L
- metal content, % Dose ([4]; Carcass): 36.30 % Dose
- metal content ([4]; Femur): 76 μmol Gd/L
- metal content, % Dose ([4]; Femur): 0.32 % Dose
- metal content ([4]; Heart): 82 μmol Gd/L
- metal content, % Dose ([4]; Heart): 0.13 % Dose
- metal content ([4]; Intestine): 230 μmol Gd/L
- metal content, % Dose ([4]; Intestine): 3.56 % Dose
- metal content ([4]; Kidneys): 489 μmol Gd/L
- metal content, % Dose ([4]; Kidneys): 1.97 % Dose
- metal content ([4]; Liver): 1222 μmol Gd/L
- metal content, % Dose ([4]; Liver): 26.28 % Dose
- metal content ([4]; Lung): 338 μmol Gd/L
- metal content, % Dose ([4]; Lung): 0.96 % Dose
- metal content ([4]; Mesenteric lymph nodes): 455 μmol Gd/L
- metal content, % Dose ([4]; Mesenteric lymph nodes): 0.33 % Dose
- metal content ([4]; Muscle): 28 μmol Gd/L
- metal content, % Dose ([4]; Muscle): 0.04 % Dose
- metal content ([4]; Pancreas): 203 μmol Gd/L
- metal content, % Dose ([4]; Pancreas): 0.48 % Dose
- metal content ([4]; Peripheral lymph nodes): 279 μmol Gd/L
- metal content, % Dose ([4]; Peripheral lymph nodes): 0.18 % Dose
- metal content ([4]; Spleen): 464 μmol Gd/L
- metal content, % Dose ([4]; Spleen): 0.89 % Dose
- metal content ([4]; Stomach): 165 μmol Gd/L
- metal content, % Dose ([4]; Stomach): 0.57 % Dose
- metal content, % Dose ([4]; Total): 73.20 % Dose

Compound: CC(C(=O)NCC(=O)N(CCOCCC(F)(F)C(F)(F)C(F)(F)C(F)(F)C(F)(F)C(F)(F)C(F)(F)C(F)(F)F)CC(O)CO)N1CCN(CC(=O)[O-])CCN(CC(=O)[O-])CCN(CC(=O)[O-])CC1.[Gd+3] (stereo not shown) [metal complex V]
- signal in the infarction area (T1-weighted spin-echo images) (myocardial infarction; 24 hours after i.v. 100 μmol of Gd/kg): strong signal rise
- 2 Rh (hydrodynamic micelle diameter) [1]: 4.4 nm
- signal in healthy lymph node tissue (T1-weighted gradient-echo images) (iliac lymph nodes): strong signal rise
- enhancement in the healthy lymph node tissue (iliac lymph nodes; 15 minutes p.i.): 246%
- ratio of signal intensities of healthy lymph node tissue to metastasis (iliac lymph nodes; 15 minutes p.i.): 2.5
- enhancement in the healthy lymph node tissue (iliac lymph nodes; 60 minutes p.i.): 282%
- ratio of signal intensities of healthy lymph node tissue to metastasis (iliac lymph nodes; 60 minutes p.i.): 1.7
- signal in zones within the lymph node diagnosed as metastases (confirmed histologically) (iliac lymph nodes): without signal rise
- enhancement of the primary tumor (especially the periphery) [2]: 350%
- enhancement of the primary tumor (center of the tumor) ([2]; 24 hours p.i.): 106%
- R^1 Plasma (relaxivity) [3]: 19.6 mmol⁻¹ s⁻¹
- metal content ([4]; Blood): 15 μmol Gd/L
- metal content, % Dose ([4]; Blood): 0.18 % Dose
- metal content ([4]; Brain): 4 μmol Gd/L
- metal content, % Dose ([4]; Brain): 0.02 % Dose
- metal content ([4]; Carcass): 268 μmol Gd/L
- metal content, % Dose ([4]; Carcass): 37.93 % Dose
- metal content ([4]; Femur): 13 μmol Gd/L
- metal content, % Dose ([4]; Femur): 0.05 % Dose
- metal content ([4]; Heart): 14 μmol Gd/L
- metal content, % Dose ([4]; Heart): 0.02 % Dose
- metal content ([4]; Intestine): 113 μmol Gd/L
- metal content, % Dose ([4]; Intestine): 1.56 % Dose
- metal content ([4]; Kidneys): 436 μmol Gd/L
- metal content, % Dose ([4]; Kidneys): 1.77 % Dose
- metal content ([4]; Liver): 344 μmol Gd/L
- metal content, % Dose ([4]; Liver): 6.34 % Dose
- metal content ([4]; Lung): 62 μmol Gd/L
- metal content, % Dose ([4]; Lung): 0.17 % Dose
- metal content ([4]; Mesenteric lymph nodes): 70 μmol Gd/L
- metal content, % Dose ([4]; Mesenteric lymph nodes): 0.05 % Dose
- metal content ([4]; Muscle): 9 μmol Gd/L
- metal content, % Dose ([4]; Muscle): 0.02 % Dose
- metal content ([4]; Pancreas): 30 μmol Gd/L
- metal content, % Dose ([4]; Pancreas): 0.05 % Dose
- metal content ([4]; Peripheral lymph nodes): 44 μmol Gd/L
- metal content, % Dose ([4]; Peripheral lymph nodes): 0.02 % Dose
- metal content ([4]; Spleen): 116 μmol Gd/L
- metal content, % Dose ([4]; Spleen): 0.17 % Dose
- metal content ([4]; Stomach): 28 μmol Gd/L
- metal content, % Dose ([4]; Stomach): 0.08 % Dose
- metal content, % Dose ([4]; Total): 48.43 % Dose

Compound: CC(C(=O)NCC(=O)NCC(=O)N1CCN(C(=O)CNC(=O)CNC(=O)C(C)N2CCN(CC(=O)[O-])CCN(CC(=O)[O-])CCN(CC(=O)[O-])CC2)CCN(C(=O)COCCC(F)(F)C(F)(F)C(F)(F)C(F)(F)C(F)(F)C(F)(F)C(F)(F)C(F)(F)F)CCN(C(=O)CNC(=O)CNC(=O)C(C)N2CCN(CC(=O)[O-])CCN(CC(=O)[O-])CCN(CC(=O)[O-])CC2)CC1)N1CCN(CC(=O)[O-])CCN(CC(=O)[O-])CCN(CC(=O)[O-])CC1.[Gd+3].[Gd+3].[Gd+3] (stereo not shown) [metal complex XIV, 1,4,7-Tris{1,4,7-tris(N-(carboxylatomethyl)-10-[N-1-methyl-3,6-diaza-2,5,8-trioxooctane-1,8-diyl]-1,4,7,10-tetraazacyclododecane, Gdcomplex}-10-N-2H,2H,4H,4H,5H,5H-3-oxa-perfluoro-tridecanoyl]-1,4,7,10-tetraazacyclo-dodecane, Gd complex]
- signal in the infarction area (T1-weighted spin-echo images) (myocardial infarction; 3 hours after i.v. 100 μmol of Gd/kg): strong signal rise
- 2 Rh (hydrodynamic micelle diameter) [1]: 2.2 nm
- signal in healthy lymph node tissue (T1-weighted gradient-echo images) (iliac lymph nodes): strong signal rise
- enhancement in the healthy lymph node tissue (iliac lymph nodes; 10 minutes p.i.): 297%
- ratio of signal intensities of healthy lymph node tissue to metastasis (iliac lymph nodes; 10 minutes p.i.): 5.1
- enhancement in the healthy lymph node tissue (iliac lymph nodes; 60 minutes p.i.): 269%
- ratio of signal intensities of healthy lymph node tissue to metastasis (iliac lymph nodes; 60 minutes p.i.): 1.9
- signal in zones within the lymph node diagnosed as metastases (confirmed histologically) (iliac lymph nodes): without signal rise
- enhancement of the primary tumor (especially the periphery) [2]: 594%
- enhancement of the primary tumor (center of the tumor) ([2]; 120 hours p.i.): 162%
- R^1 Plasma (relaxivity) [3]: 19.5 mmol⁻¹ s⁻¹
